The test has as its system P388 leukemia ip, CD2F1 mice, survival T/C. Kind of test: NCI In Vivo Anticancer Drug Screen. Data for tumor model P388 Leukemia (intraperitoneal) in CD2F1 (CDF1) mice. To be noted: endpoint: median survival time, higher = longer survival. The method in brief: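 Mice carrying the transplanted tumor received test compound or vehicle. Survival was recorded in each group, and the value is the treated-group measurement divided by that of the vehicle-treated control group.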

[1] abbreviates: dose: 50.0 mg/kg/injection, schedule: Q01DX009 (ip), vehicle: saline.
[2] abbreviates: dose: 100.0 mg/kg/injection, schedule: Q01DX009 (ip), vehicle: saline.
The mark [3] stands for this setting: dose: 200.0 mg/kg/injection, schedule: Q01DX009 (ip), vehicle: saline.
The mark [4] stands for this setting: dose: 25.0 mg/kg/injection, schedule: Q01DX009 (ip), vehicle: saline.
Setting [5] is: dose: 50.0 mg/kg/injection, schedule: Q01DX005 (ip), vehicle: Klucel (hydroxypropylcellulose) (HPC).
The mark [6] stands for this setting: dose: 100.0 mg/kg/injection, schedule: Q01DX005 (ip), vehicle: Klucel (hydroxypropylcellulose) (HPC).
The mark [7] stands for this setting: dose: 200.0 mg/kg/injection, schedule: Q01DX005 (ip), vehicle: Klucel (hydroxypropylcellulose) (HPC).
The mark [8] stands for this setting: dose: 60.0 mg/kg/injection, schedule: Q01DX005 (ip), vehicle: saline with Tween-80.
Setting [9] is: dose: 120.0 mg/kg/injection, schedule: Q01DX005 (ip), vehicle: saline with Tween-80.
The mark [10] stands for this setting: dose: 240.0 mg/kg/injection, schedule: Q01DX005 (ip), vehicle: saline with Tween-80.

Values joined by “and” are separate entries in the source; they are usually repeats but may differ in a detail not shown here. Equal entries are not always repeated. Inconclusive results and toxic doses are left out.

Take `COc1ccccc1-n1s/c(=N\OC(=O)c2sc3ccccc3c2Cl)sc1=S`: the T/C is, setting by setting: under setting [1], 93 % of control; under setting [2], 94 % of control; under setting [3], 94 % of control.
As for `CCCCCCCCCCCCCCCCS(=O)(=O)c1ccc(S(=O)(=O)N/N=c2/sc3ccccc3n2C)cc1C(=O)O`, the T/C is, setting by setting: (dose: 6.25 mg/kg/injection, schedule: Q01DX009 (ip), vehicle: saline) 103 % of control; (dose: 12.5 mg/kg/injection, schedule: Q01DX009 (ip), vehicle: saline) 97 % of control; under setting [4], 94 % of control; under setting [2], 88 % of control.
Regarding `CC(=O)c1oc(C)nc1C`, the T/C under setting [1] was 104 % of control, the T/C under setting [2] was 100 % of control and the T/C under setting [3] is 104 % of control.
As for `CCN(C)C12CN3CN(CN(C3)C1)C2`, the T/C reads like this: (dose: 100.0 mg/kg/injection, schedule: Q01DX001 (ip), vehicle: saline) 101 % of control; (dose: 200.0 mg/kg/injection, schedule: Q01DX001 (ip), vehicle: saline) 110 % of control; (dose: 400.0 mg/kg/injection, schedule: Q01DX001 (ip), vehicle: saline) 102 % of control.
In the case of `O=C1c2ccccc2-c2ccc(N=Cc3c[nH]c4ccccc34)cc21`, the T/C by setting is: (dose: 50.0 mg/kg/injection, schedule: Q01DX005 (ip), vehicle: saline + Tween-80 + alcohol) 104 % of control; (dose: 100.0 mg/kg/injection, schedule: Q01DX005 (ip), vehicle: saline + Tween-80 + alcohol) 98 % of control; (dose: 200.0 mg/kg/injection, schedule: Q01DX005 (ip), vehicle: saline + Tween-80 + alcohol) 98 % of control.
In the case of `O=C1CC2C1C1C=CC2n2c(=O)n(-c3ccccc3)c(=O)n21` (stereo not drawn), the T/C (dose: 12.5 mg/kg/injection, schedule: Q04DX002 (ip), vehicle: saline with Tween-80) was 98 % of control; the T/C (dose: 25.0 mg/kg/injection, schedule: Q04DX002 (ip), vehicle: saline with Tween-80) is 99 % of control; the T/C (dose: 50.0 mg/kg/injection, schedule: Q04DX002 (ip), vehicle: saline with Tween-80) was 101 % of control.
On to `CC1NC(=O)NC(=O)C1=S` (stereo not drawn), for which the T/C was 112 % of control under setting [5], 111 % of control under setting [6] and 113 % of control under setting [7].
Regarding `Oc1cc2c(cc1C(Nc1ccccn1)c1ccc3c(c1)OCO3)OCO2` (stereo not drawn), the T/C reads like this: under setting [8], 108 % of control; under setting [9], 108 % of control; under setting [10], 95 % of control.
With `C=CCNC1=C2C[C@@H](C)C[C@H](OC)[C@H](O)[C@@H](C)/C=C(\C)[C@H](OC(N)=O)[C@@H](OC)/C=C\C=C(/C)C(=O)NC(=CC1=O)C2=O`, the T/C was 108 % of control (dose: 6.25 mg/kg/injection, schedule: Q01DX009 (ip), vehicle: DMSO); 112 % of control (dose: 6.25 mg/kg/injection, schedule: Q01DX009 (ip), vehicle: distilled water + Tween-80); 100 % of control (dose: 12.5 mg/kg/injection, schedule: Q01DX009 (ip), vehicle: DMSO); 112 % of control (dose: 12.5 mg/kg/injection, schedule: Q01DX009 (ip), vehicle: distilled water + Tween-80); 107 % of control (dose: 25.0 mg/kg/injection, schedule: Q01DX009 (ip), vehicle: DMSO).
In the case of `COc1ccc(C(NCCn2cnc3c2c(=O)n(C)c(=O)n3C)c2ccccc2)cc1` (stereo not drawn), the T/C runs as follows: (dose: 6.25 mg/kg/injection, schedule: Q01DX005 (ip), vehicle: alkali diluted with saline) 100 % of control; (dose: 12.5 mg/kg/injection, schedule: Q01DX005 (ip), vehicle: alkali diluted with saline) 100 % of control; (dose: 25.0 mg/kg/injection, schedule: Q01DX005 (ip), vehicle: alkali diluted with saline) 96 % of control.
Regarding `CCCC(O)CN` (stereo not drawn), the T/C was 103 % of control (dose: 100.0 mg/kg/injection, schedule: Q04DX003 (ip), vehicle: saline) and 107 % of control (dose: 200.0 mg/kg/injection, schedule: Q04DX003 (ip), vehicle: saline).
With `CC(=O)c1c(Br)c2c3ccccc3c3ccccc3n2c1C`, the T/C reads like this: under setting [8], 107 % of control; under setting [9], 106 % of control; under setting [10], 92 % of control.
Take `O=C1c2ccc(=O)[nH]c2C(=O)C2CC3=C(CCCC3)CC12` (stereo not drawn): the T/C is 109 % of control (dose: 50.0 mg/kg/injection, schedule: Q01DX005 (ip), vehicle: saline with Tween-80); 97 % of control (dose: 100.0 mg/kg/injection, schedule: Q01DX005 (ip), vehicle: saline with Tween-80); 94 % of control (dose: 200.0 mg/kg/injection, schedule: Q01DX005 (ip), vehicle: saline with Tween-80).
For `CC(=O)NCC(C)c1ccccc1` (stereo not drawn), for the setting “dose: 25.0 mg/kg/injection, schedule: Q01DX009 (ip), vehicle: saline with Tween-80”, the T/C is 102 % of control.
Take `CCCCCCCN(CCCCCCC)CC(O)c1c(OC)c2cc(Cl)ccc2c2ccc(Cl)cc12` (stereo not drawn): the T/C runs as follows: (dose: 10.0 mg/kg/injection, schedule: Q01DX009 (ip), vehicle: saline with Tween-80) 94 % of control; (dose: 20.0 mg/kg/injection, schedule: Q01DX009 (ip), vehicle: saline with Tween-80) 90 % of control; (dose: 40.0 mg/kg/injection, schedule: Q01DX009 (ip), vehicle: saline with Tween-80) 92 % of control.
Consider `CN1CCN(CN2C(=O)C3C4C=CC(C3C2=O)C2C3C(=O)N(CN5CCN(C)CC5)C(=O)C3C42)CC1` (stereo not drawn), for which the T/C is 103 % of control (dose: 6.25 mg/kg/injection, schedule: Q01DX009 (ip), vehicle: water); 100 % of control (dose: 7.5 mg/kg/injection, schedule: Q01DX005 (ip), vehicle: water); 99 % of control (dose: 7.5 mg/kg/injection, schedule: Q01DX009 (ip), vehicle: water); 104 % of control (dose: 12.5 mg/kg/injection, schedule: Q01DX009 (ip), vehicle: water); 101 % of control and 96 % of control (dose: 15.0 mg/kg/injection, schedule: Q01DX005 (ip), vehicle: water); 105 % of control (dose: 15.0 mg/kg/injection, schedule: Q01DX009 (ip), vehicle: water). Also, the T/C (dose: 24.8 mg/kg/injection, schedule: Q01DX009 (ip), vehicle: water) is 113 % of control; the T/C under setting [4] was 99 % of control; the T/C (dose: 25.0 mg/kg/injection, schedule: Q01DX009 (ip), vehicle: water) was 104 % of control; the T/C (dose: 26.8 mg/kg/injection, schedule: Q01DX009 (ip), vehicle: water) is 106 % of control and 118 % of control; the T/C (dose: 30.0 mg/kg/injection, schedule: Q01DX005 (ip), vehicle: water) was 107 % of control and 119 % of control; the T/C (dose: 30.0 mg/kg/injection, schedule: Q01DX009 (ip), vehicle: water) is 116 % of control and 121 % of control. The T/C reads like this: (dose: 44.6 mg/kg/injection, schedule: Q01DX009 (ip), vehicle: water) 151 % of control; under setting [1], 106 % of control; (dose: 60.0 mg/kg/injection, schedule: Q01DX005 (ip), vehicle: water) 151 % of control; (dose: 60.0 mg/kg/injection, schedule: Q01DX009 (ip), vehicle: water) 165 % of control and 161 % of control; (dose: 68.8 mg/kg/injection, schedule: Q01DX009 (ip), vehicle: water) 172 % of control; (dose: 74.4 mg/kg/injection, schedule: Q01DX009 (ip), vehicle: water) 164 % of control and 190 % of control. Besides, the T/C was 211 % of control under setting [2]; 200 % of control and 207 % of control (dose: 100.0 mg/kg/injection, schedule: Q01DX009 (ip), vehicle: water); 111 % of control (dose: 120.0 mg/kg/injection, schedule: Q01DX009 (ip), vehicle: water); 105 % of control (dose: 124.0 mg/kg/injection, schedule: Q01DX009 (ip), vehicle: water).
Take `[Fe+2].[Fe+2].c1ccc2c(c1)-c1nc-2nc2[n-]c(nc3nc(nc4[n-]c(n1)c1ccccc41)-c1ccccc1-3)c1cc3c4nc5nc(nc6[n-]c(nc7nc(nc([n-]4)c3cc21)-c1ccccc1-7)c1ccccc61)-c1ccccc1-5`: the T/C by setting is: under setting [5], 100 % of control; under setting [6], 110 % of control; under setting [7], 106 % of control.
Take `CC1(C)N=C(N)N=C(N)N1c1ccc(C(N)=O)cc1`: the T/C reads like this: (dose: 25.0 mg/kg/injection, schedule: Q01DX005 (ip), vehicle: Klucel (hydroxypropylcellulose) (HPC)) 100 % of control and 101 % of control; under setting [5], 99 % of control and 100 % of control; under setting [6], 101 % of control and 98 % of control.

The values are drawn from PubChem BioAssay AID330 (DTP/NCI, 2004).
